Test results taken from patent US9604961B2, “Histone demethylase inhibitors” (Celgene Quanticel Research, Inc., priority 2012, dated 2017).

What was measured:
Assay type in all cases: biochemical
Jarid1A = Jarid1A (Homo sapiens (Human), UniProt P29375); experiment: Jarid1A in vitro enzyme inhibition assay (TR-FRET)
Text: The enzymatic assay of Jarid1A activity is based upon Time Resolved-Fluorescence Resonance Energy Transfer (TR-FRET) detection.

Jarid1B = Jarid1B (Homo sapiens (Human), UniProt Q9UGL1); experiment: Jarid1B in vitro enzyme inhibition assay (TR-FRET)
Chain of Jarid1B (Q9UGL1 2-751): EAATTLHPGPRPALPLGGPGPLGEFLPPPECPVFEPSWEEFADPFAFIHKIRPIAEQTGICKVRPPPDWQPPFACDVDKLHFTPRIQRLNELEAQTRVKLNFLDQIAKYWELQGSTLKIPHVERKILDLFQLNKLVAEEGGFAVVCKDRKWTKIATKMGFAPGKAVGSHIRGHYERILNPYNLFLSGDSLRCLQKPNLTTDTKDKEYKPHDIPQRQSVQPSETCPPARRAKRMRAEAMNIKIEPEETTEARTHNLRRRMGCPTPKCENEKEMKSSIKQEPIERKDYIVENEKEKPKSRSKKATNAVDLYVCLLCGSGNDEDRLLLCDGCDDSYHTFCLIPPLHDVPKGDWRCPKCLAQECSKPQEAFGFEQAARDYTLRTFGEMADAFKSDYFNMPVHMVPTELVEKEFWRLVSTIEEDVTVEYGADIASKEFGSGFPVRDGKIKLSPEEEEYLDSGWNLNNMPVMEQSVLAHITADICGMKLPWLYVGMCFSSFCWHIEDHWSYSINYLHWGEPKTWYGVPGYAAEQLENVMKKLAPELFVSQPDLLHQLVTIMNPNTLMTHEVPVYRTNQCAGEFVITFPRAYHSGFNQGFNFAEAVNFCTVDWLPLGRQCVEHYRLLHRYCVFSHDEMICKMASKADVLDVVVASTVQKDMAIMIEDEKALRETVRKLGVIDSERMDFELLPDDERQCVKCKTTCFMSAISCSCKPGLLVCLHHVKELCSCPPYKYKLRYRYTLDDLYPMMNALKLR
Protocol: This assay determines the ability of a test compound to inhibit Jarid1A, Jarid1B, JMJD2C, and JMJD2A demethylase activity.
The ability of test compounds to inhibit the activity of Jarid1B was determined in 384-well plate format under the following reaction conditions: 0.8 nM Jarid1B, 300 nM H3K4me3-biotin labeled peptide (Anaspec cat #64357), 2 μM alpha-ketoglutaric acid in assay buffer of 50 mM HEPES, pH7.3, 0.005% Brij35, 0.5 mM TCEP, 0.2 mg/ml BSA, 50 μM sodium L-ascorbate, and 2 μM ammonium iron(II) sulfate. Reaction product was determined quantitatively by TR-FRET after the addition of detection reagent Phycolink Streptavidin-allophycocyanin (Prozyme) and Europium-anti-mono- or di-methylated histone H3 lysine 4 (H3K4me1-2) antibody (PerkinElmer) in the presence of 5 mM EDTA in LANCE detection buffer (PerkinElmer) at a final concentration of 25 nM and 1 nM, respectively.
The assay reaction was initiated by the following: 2 μl of the mixture of 900 nM H3K4me3-biotin labeled peptide and 6 μM alpha-ketoglutaric acid with 2 μl of 11-point serial diluted inhibitor in 3% DMSO was added to each well of the plate, followed by the addition of 2 μl of 2.4 nM Jarid1B to initiate the reaction. The reaction mixture was incubated at room temperature for 30 minutes, and terminated by the addition of 6 μl of 5 mM EDTA in LANCE detection buffer containing 50 nM Phycolink Streptavidin-allophycocyanin and 2 nM Europium-anti-H3K4me1-2 antibody. Plates were read by EnVisionMultilabel Reader in TR-FRET mode (excitation at 320 nm, emission at 615 nm and 665 nm) after 1 hour incubation at room temperature. A ratio was calculated (665/615) for each well and fitted to determine inhibition constant (IC50).

JMJD2C = JMJD2C (Homo sapiens (Human), UniProt Q9H3R0); experiment: JMJD2C in vitro enzyme inhibition assay (TR-FRET)
Chain of JMJD2C (Q9H3R0 2-372): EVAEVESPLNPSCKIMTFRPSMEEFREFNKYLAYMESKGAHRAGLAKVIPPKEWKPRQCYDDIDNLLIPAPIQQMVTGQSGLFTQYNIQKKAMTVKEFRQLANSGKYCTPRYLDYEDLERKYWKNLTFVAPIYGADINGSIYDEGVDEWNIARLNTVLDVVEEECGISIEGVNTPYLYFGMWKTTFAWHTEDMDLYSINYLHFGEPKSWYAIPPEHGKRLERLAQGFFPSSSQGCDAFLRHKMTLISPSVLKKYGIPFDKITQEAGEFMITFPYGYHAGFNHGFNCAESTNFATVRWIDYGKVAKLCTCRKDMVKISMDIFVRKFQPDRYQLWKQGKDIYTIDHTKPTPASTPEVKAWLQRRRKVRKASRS
Protocol: Baculovirus expressed JMJD2C (GenBank Accession #BC143571, AA 2-372) was purchased from BPS Bioscience (Cat#50105).
The ability of test compounds to inhibit the activity of JMJD2C was determined in 384-well plate format under the following reaction conditions: 0.3 nM JMJD2C, 300 nM H3K9me3-biotin labeled peptide (Anaspec cat #64360), 2 μM alpha-ketoglutaric acid in assay buffer of 50 mM HEPES, pH7.3, 0.005% Brij35, 0.5 mM TCEP, 0.2 mg/ml BSA, 50 μM sodium L-ascorbate, and 2 μM ammonium iron(II) sulfate. Reaction product was determined quantitatively by TR-FRET after the addition of detection reagent Phycolink Streptavidin-allophycocyanin (Prozyme) and Europium-anti-di-methylated histone H3 lysine 9 (H3K9me2) antibody (PerkinElmer) in the presence of 5 mM EDTA in LANCE detection buffer (PerkinElmer) at a final concentration of 50 nM and 1 nM, respectively.
The assay reaction was initiated by the following: 2 μl of the mixture of 900 nM H3K9me3-biotin labeled peptide and 6 μM alpha-ketoglutaric acid with 2 μl of 11-point serial diluted inhibitor in 3% DMSO were added to each well of the plate, followed by the addition of 2 μl of 0.9 nM JMJD2C to initiate the reaction. The reaction mixture was incubated at room temperature for 30 minutes, and terminated by the addition of 6 μl of 5 mM EDTA in LANCE detection buffer containing 100 nM Phycolink Streptavidin-allophycocyanin and 2 nM Europium-anti-H3K9me2 antibody. Plates were read by EnVisionMultilabel Reader in TR-FRET mode (excitation at 320 nm, emission at 615 nm and 665 nm) after 1 hour incubation at room temperature. A ratio was calculated (665/615) for each well and fitted to determine inhibition constant (IC50).

FBXL10 = FBXL10 (Homo sapiens (Human), UniProt Q8NHM5); experiment: FBXL10 in vitro enzyme inhibition assay (AlphaScreen)
Chain of FBXL10 (Q8NHM5 1-650): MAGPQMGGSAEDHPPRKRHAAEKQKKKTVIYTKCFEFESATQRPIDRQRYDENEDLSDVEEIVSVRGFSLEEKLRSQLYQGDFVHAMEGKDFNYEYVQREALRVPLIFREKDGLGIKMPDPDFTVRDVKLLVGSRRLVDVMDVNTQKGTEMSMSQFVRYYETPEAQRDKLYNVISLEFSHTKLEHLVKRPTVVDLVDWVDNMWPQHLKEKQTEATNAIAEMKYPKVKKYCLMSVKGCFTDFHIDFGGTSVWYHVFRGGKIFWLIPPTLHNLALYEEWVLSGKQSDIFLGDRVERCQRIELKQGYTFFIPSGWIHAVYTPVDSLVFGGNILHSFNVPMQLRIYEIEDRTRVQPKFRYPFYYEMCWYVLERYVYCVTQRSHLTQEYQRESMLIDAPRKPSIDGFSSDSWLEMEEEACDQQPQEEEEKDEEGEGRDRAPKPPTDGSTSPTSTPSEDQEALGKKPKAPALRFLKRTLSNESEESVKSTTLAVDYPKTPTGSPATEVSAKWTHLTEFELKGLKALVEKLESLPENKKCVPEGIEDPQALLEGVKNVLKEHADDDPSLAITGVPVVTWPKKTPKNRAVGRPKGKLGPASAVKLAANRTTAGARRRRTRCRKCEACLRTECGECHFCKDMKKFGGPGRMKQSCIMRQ
Protocol: Reaction product was determined quantitatively by AlphaScreen detection after the addition of detection reagents anti-H3K36me1 antibody, AlphaScreen® Streptavidin-coated Donor beads, and AlphaScreen® Protein A Acceptor beads in 50 mM HEPES, pH7.3, 10 mM NaCl, 0.005% Brij35, 5 mM EDTA, 2 mg/ml BSA to final 10 μg/ml beads.
Plates were incubated at room temperature for 40 minutes, followed by addition of 3 μl of 50 μg/ml AlphaScreen® Streptavidin-coated Donor beads and AlphaScreen® Protein A Acceptor beads in 50 mM HEPES, pH7.3, 10 mM NaCl, 0.005% Brij35, 5 mM EDTA, 2 mg/ml BSA. Plates were read by EnVisionMultilabel Reader in AlphaScreen mode after a minimum of 2 hour or up to overnight incubation at room temperature. The AlphaScreen signal for each well was used to determine inhibition constant (IC50).

Chain of Jarid1A (P29375 1-1090): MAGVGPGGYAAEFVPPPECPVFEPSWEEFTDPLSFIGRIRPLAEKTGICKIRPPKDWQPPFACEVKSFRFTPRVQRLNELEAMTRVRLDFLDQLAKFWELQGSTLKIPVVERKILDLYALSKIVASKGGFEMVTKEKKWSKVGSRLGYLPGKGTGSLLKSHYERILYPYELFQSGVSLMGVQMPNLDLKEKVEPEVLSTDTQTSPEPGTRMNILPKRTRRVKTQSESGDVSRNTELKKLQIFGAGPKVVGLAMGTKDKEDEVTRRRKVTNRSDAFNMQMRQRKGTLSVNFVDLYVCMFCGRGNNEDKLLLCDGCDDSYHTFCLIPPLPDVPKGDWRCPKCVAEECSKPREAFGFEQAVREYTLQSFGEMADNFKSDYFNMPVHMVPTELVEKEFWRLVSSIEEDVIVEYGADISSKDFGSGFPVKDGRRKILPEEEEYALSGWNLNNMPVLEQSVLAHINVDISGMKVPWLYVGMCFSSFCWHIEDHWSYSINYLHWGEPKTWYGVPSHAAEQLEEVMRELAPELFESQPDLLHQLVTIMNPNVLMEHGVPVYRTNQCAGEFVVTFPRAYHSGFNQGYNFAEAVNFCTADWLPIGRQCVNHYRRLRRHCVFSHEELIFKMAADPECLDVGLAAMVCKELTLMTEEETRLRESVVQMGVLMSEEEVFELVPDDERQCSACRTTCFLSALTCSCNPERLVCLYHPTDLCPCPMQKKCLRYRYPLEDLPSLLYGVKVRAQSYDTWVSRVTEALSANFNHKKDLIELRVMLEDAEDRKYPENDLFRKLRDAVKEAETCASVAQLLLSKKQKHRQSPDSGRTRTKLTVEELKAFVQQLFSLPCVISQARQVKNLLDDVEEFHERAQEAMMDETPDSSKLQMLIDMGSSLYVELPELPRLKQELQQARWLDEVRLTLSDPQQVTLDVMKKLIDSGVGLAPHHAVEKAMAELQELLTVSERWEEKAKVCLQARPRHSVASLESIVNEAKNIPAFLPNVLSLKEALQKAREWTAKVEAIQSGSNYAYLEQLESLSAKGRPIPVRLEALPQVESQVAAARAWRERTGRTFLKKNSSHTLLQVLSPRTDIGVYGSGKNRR

SMILES	IC50 (Jarid1A) [nM]	IC50 (Jarid1B) [nM]	IC50 (JMJD2C) [nM]	IC50 (FBXL10) [nM]
Cc1cc(O)n(-c2cc(C(=O)O)ccn2)n1 [Example 1, 2-(5-hydroxy-3-methyl-1H-pyrazol-1-yl)isonicotinic acid]	100 to 1000	< 100	100 to 1000	100 to 1000
O=C(O)c1ccnc(-n2nc(-c3ccccc3F)cc2O)c1 [Example 5, 2-(3-(2-fluorophenyl)-5-hydroxy-1H-pyrazol-1-yl)isonicotinic acid]	1000 to 10000	1000 to 10000	1000 to 10000	< 100
CCCc1cc(O)n(-c2cc(C(=O)O)ccn2)n1 [Example 6, 2-(5-hydroxy-3-propyl-1H-pyrazol-1-yl)isonicotinic acid]	100 to 1000	100 to 1000	100 to 1000	100 to 1000
O=C(O)c1ccnc(-n2nc(-c3ccccc3Cl)cc2O)c1 [Example 7, 2-(3-(2-chlorophenyl)-5-hydroxy-1H-pyrazol-1-yl)isonicotinic acid]	1000 to 10000	1000 to 10000	> 10000	< 100
COCc1cc(O)n(-c2cc(C(=O)O)ccn2)n1 [Example 9, 2-(5-hydroxy-3-(methoxymethyl)-1H-pyrazol-1-yl)isonicotinic acid]	100 to 1000	100 to 1000	1000 to 10000	< 100
O=C(O)c1ccnc(-n2nc(COc3ccccc3)cc2O)c1 [Example 10, 2-(5-hydroxy-3-(phenoxymethyl)-1H-pyrazol-1-yl)isonicotinic acid]	1000 to 10000	100 to 1000	> 10000	< 100
Cc1cc(I)ccc1COc1ccnn1-c1cc(C(=O)O)ccn1 [Example 144, 2-[5-[(4-iodo-2-methylphenyl)methoxy]pyrazol-1-yl]pyridine-4-carboxylic acid]	< 100	< 100	100 to 1000	–
COc1cc(I)ccc1COc1ccnn1-c1cc(C(=O)O)ccn1 [Example 145, 2-[5-[(4-iodo-2-methoxyphenyl)methoxy]pyrazol-1-yl]pyridine-4-carboxylic acid]	< 100	< 100	100 to 1000	–
O=C(O)c1ccnc(-n2nccc2OC2CCc3cc(Cl)ccc32)c1 (stereo not drawn) [Example 147, 2-[5-[(5-chloro-2,3-dihydro-1H-inden-1-yl)oxy]pyrazol-1-yl]pyridine-4-carboxylic acid]	100 to 1000	100 to 1000	1000 to 10000	–
O=C(O)c1ccnc(-n2nccc2OC2CCCc3cc(Cl)ccc32)c1 (stereo not drawn) [Example 149, 2-[5-[(6-chloro-1,2,3,4-tetrahydronaphthalen-1-yl)oxy]pyrazol-1-yl]pyridine-4-carboxylic acid]	100 to 1000	< 100	1000 to 10000	–
CCc1ccc(COc2ccnn2-c2cc(C(=O)O)ccn2)c(F)c1 [Example 151, 2-[5-[(4-ethyl-2-fluorophenyl)methoxy]pyrazol-1-yl]pyridine-4-carboxylic acid]	100 to 1000	< 100	1000 to 10000	–
O=C(O)c1ccnc(-n2nccc2OCc2ccc(C3CC3)c(F)c2)c1 [Example 155, 2-[5-[(4-cyclopropyl-3-fluorophenyl)methoxy]pyrazol-1-yl]pyridine-4-carboxylic acid]	100 to 1000	< 100	1000 to 10000	–
CN(CCc1cnn(-c2cc(C(=O)NC#N)ccn2)c1)Cc1ccc(F)cc1 [Example 157, N-cyano-2-[4-[2-[(4-fluorophenyl)methyl-methylamino]ethyl]pyrazol-1-yl]pyridine-4-carboxamide]	< 100	< 100	< 100	–
O=C(O)c1ccnc(-n2nc(Cc3c(F)cccc3F)cc2O)c1 [Example 161, 2-[3-[(2,6-difluorophenyl)methyl]-5-hydroxypyrazol-1-yl]pyridine-4-carboxylic acid]	–	–	1000 to 10000	< 100
Oc1cc(Cc2cccc(Cl)c2)nn1-c1cc(-c2nnn[nH]2)ccn1 [Example 168, 5-[(3-chlorophenyl)methyl]-2-[4-(1H-tetrazol-5-yl)pyridin-2-yl]pyrazol-3-ol]	–	–	1000 to 10000	< 100
CC(C)(c1ccc(Cl)cc1)c1cc(O)n(-c2cc(C(=O)O)ccn2)n1 [Example 170, 2-[3-[2-(4-chlorophenyl)propan-2-yl]-5-hydroxypyrazol-1-yl]pyridine-4-carboxylic acid]	–	–	1000 to 10000	< 100
O=C(O)c1ccnc(-n2nc(Cc3cc(Cl)cc(Cl)c3)cc2O)c1 [Example 172, 2-[3-[(3,5-dichlorophenyl)methyl]-5-hydroxypyrazol-1-yl]pyridine-4-carboxylic acid]	–	–	1000 to 10000	100 to 1000
Cc1ccc(Cc2cc(O)n(-c3cc(C(=O)O)ccn3)n2)c(F)c1 [Example 174, 2-[3-[(2-fluoro-4-methylphenyl)methyl]-5-hydroxypyrazol-1-yl]pyridine-4-carboxylic acid]	–	–	1000 to 10000	< 100

Next, values leading:

IC50 (Jarid1A) [nM]	IC50 (Jarid1B) [nM]	IC50 (JMJD2C) [nM]	IC50 (FBXL10) [nM]	SMILES
100 to 1000	< 100	100 to 1000	100 to 1000	Cc1nn(-c2cc(C(=O)O)ccn2)c(O)c1C [Example 3, 2-(5-hydroxy-3,4-dimethyl-1H-pyrazol-1-yl)isonicotinic acid]
1000 to 10000	1000 to 10000	1000 to 10000	100 to 1000	Cc1nn(-c2cc(C(=O)O)ccn2)c(O)c1-c1ccccc1 [Example 4, 2-(5-hydroxy-3-methyl-4-phenyl-1H-pyrazol-1-yl)isonicotinic acid]
100 to 1000	100 to 1000	1000 to 10000	< 100	O=C(O)c1ccnc(-n2nc(Cc3ccccc3)cc2O)c1 [Example 8, 2-(3-benzyl-5-hydroxy-1H-pyrazol-1-yl)isonicotinic acid]
< 100	< 100	100 to 1000	100 to 1000	O=C(O)c1ccnc(-n2nccc2O)c1 [Example 11, 2-(5-hydroxy-1H-pyrazol-1-yl)isonicotinic acid]
< 100	< 100	100 to 1000	–	COc1cc(Br)ccc1COc1ccnn1-c1cc(C(=O)O)ccn1 [Example 143, 2-[5-[(4-bromo-2-methoxyphenyl)methoxy]pyrazol-1-yl]pyridine-4-carboxylic acid]
100 to 1000	100 to 1000	100 to 1000	–	O=C(O)c1ccnc(-n2nccc2OC2CCc3cc(F)ccc32)c1 (stereo not drawn) [Example 146, 2-[5-[(5-fluoro-2,3-dihydro-1H-inden-1-yl)oxy]pyrazol-1-yl]pyridine-4-carboxylic acid]
100 to 1000	100 to 1000	1000 to 10000	–	O=C(O)c1ccnc(-n2nccc2OC2CCCc3cc(F)ccc32)c1 (stereo not drawn) [Example 148, 2-[5-[(6-fluoro-1,2,3,4-tetrahydronaphthalen-1-yl)oxy]pyrazol-1-yl]pyridine-4-carboxylic acid]
100 to 1000	100 to 1000	1000 to 10000	–	CCc1ccc(COc2ccnn2-c2cc(C(=O)O)ccn2)c(Cl)c1 [Example 150, 2-[5-[(2-chloro-4-ethylphenyl)methoxy]pyrazol-1-yl]pyridine-4-carboxylic acid]
100 to 1000	100 to 1000	1000 to 10000	–	O=C(O)c1ccnc(-n2nccc2OCc2ccc(C3CC3)cc2Cl)c1 [Example 152, 2-[5-[(2-chloro-4-cyclopropylphenyl)methoxy]pyrazol-1-yl]pyridine-4-carboxylic acid]
100 to 1000	100 to 1000	1000 to 10000	–	O=C(O)c1ccnc(-n2nccc2OCc2ccc(C3CC3)cc2F)c1 [Example 153, 2-[5-[(4-cyclopropyl-2-fluorophenyl)methoxy]pyrazol-1-yl]pyridine-4-carboxylic acid]
100 to 1000	100 to 1000	1000 to 10000	–	O=C(O)c1ccnc(-n2nccc2OCc2ccc(C3CC3)c(Cl)c2)c1 [Example 154, 2-[5-[(3-chloro-4-cyclopropylphenyl)methoxy]pyrazol-1-yl]pyridine-4-carboxylic acid]
–	–	1000 to 10000	< 100	CC(c1ccccc1)c1cc(O)n(-c2cc(-c3nnn[nH]3)ccn2)n1 (stereo not drawn) [Example 166, 5-(1-phenylethyl)-2-[4-(1H-tetrazol-5-yl)pyridin-2-yl]pyrazol-3-ol]
–	–	1000 to 10000	< 100	Oc1cc(Cc2ccccc2Cl)nn1-c1cc(-c2nnn[nH]2)ccn1 [Example 167, 5-[(2-chlorophenyl)methyl]-2-[4-(1H-tetrazol-5-yl)pyridin-2-yl]pyrazol-3-ol]
–	–	1000 to 10000	< 100	O=C(O)c1ccnc(-n2nc(C3(c4ccc(Cl)cc4)CC3)cc2O)c1 [Example 171, 2-[3-[1-(4-chlorophenyl)cyclopropyl]-5-hydroxypyrazol-1-yl]pyridine-4-carboxylic acid]
–	–	1000 to 10000	< 100	Cc1cc(F)ccc1Cc1cc(O)n(-c2cc(C(=O)O)ccn2)n1 [Example 173, 2-[3-[(4-fluoro-2-methylphenyl)methyl]-5-hydroxypyrazol-1-yl]pyridine-4-carboxylic acid]
–	–	1000 to 10000	< 100	O=C(O)c1ccnc(-n2nc(Cc3ccc(F)cc3F)cc2O)c1 [Example 175, 2-[3-[(2,4-difluorophenyl)methyl]-5-hydroxypyrazol-1-yl]pyridine-4-carboxylic acid]
